Data published in patent US20030195161A1, “Composition comprising camptothecin or a camptothecin derivative and a topoisomerase II inhibitor for the treatment of cancer” (priority 2000, published 2003).
Where two headings read alike, the source gives them in different places. Marks after values point to notes of the source that are not given here.

Legend:
[1] = tested on: P388; type: in vivo, mice; conditions: highest non-toxic dose
Method: (§1) Cross-resistance between various agents was measured in murine leukemia cell lines. P388/CPT is a camptothecin-resistant leukemia that was established in vitro (Biochem. Pharmacol., 45: 339 (1993)) and maintained in vivo by i.p. passages in DBA2 female mice. The chemosensitivity of i.p. P388/CPT was evaluated with i.v. P388 sensitive reference drugs with different mechanisms of action. Antitumor efficacy was determined at the highest non-toxic dose as percent increase in life span (ILS), where:
(§2) ILS=100×[(median day of death (MDD) of treated mice)−(MDD control mice)][…]
(§3) A minimal level of activity equals an ILS of greater than 26%. P388/CPT was found resistant to camptothecin s.c. and CPT-11, but sensitive to both doxorubicin and etoposide. […] Table II tabulates the results from this study.

[2] = tested on: P388/CPT; assay: Percent increase in life span, camptothecin-resistant i.p. P388/CPT leukemia (Example 2); type: in vivo, mice; conditions: for Comment (chemosensitivity of P388/CPT): minimal activity = ILS greater than 26%; for % ILS: i.p. P388/CPT, highest non-toxic dose
Method: as §1, §2, §3

[3] = tested on: P03, sc; assay: Dose response combination study, P03 sc (Example 5); type: in vivo, murine
Method: Three arms were evaluated for tolerance and efficacy.

[4] = tested on: Pancreatic Ductal Adenocarcinoma P03
Method: In the first arm, three doses of CPT were given orally on days six through nine, twice a day. In the second arm, three doses of doxorubicin were given intravenously on days six and nine. In the combination third arm, five dosage levels of CPT-11 were administered orally on days six through nine, twice a day, with administration of five dosage levels of doxorubicin intravenously on days six and nine. This third arm illustrated an example of semi-simultaneous administration. In all three arms, the two daily administrations of CPT-11 were given four hours apart.

[5] = tested on: MA16/C, sc; conditions: mouse, in vivo
Method: (§6) The effectiveness of irinotecan combination chemotherapy methods was tested in a dose response study in a murine tumor model. Three arms were evaluated for tolerance and efficacy. Tolerance was measured by mortality, body weight loss at nadir, host recovery time, and combination toxicity index. Efficacy end points for solid tumor models were tumor growth delay (T/C), log10 cell kill (LCK, defined above), tumor regressions (i.e., complete remission (CR),or partial remission (PR)).
(§7) The LD10 for the single agent was obtained by plotting the toxicity of that agent and the dosage in mg/kg as a log probit graph. Subsequently, the CTI LD10 was obtained by plotting as a log probit graph the observed lethality and the corresponding CTI calculated as the sum of the fraction of the LD10 of each single agent.

[6] = tested on: MA16/C, sc; assay: Dose response combination study, MA16/C sc (Example 5)
Method: as §6, §7

[7] = tested on: C26; conditions: C26 (BALB/c); for LCK: at optimal total dose
Method: (§4) This efficacy may be quantified, for example by the log10 cell kill, which is determined by the following formula: […]
(§5) in which T−C represents the time taken for the cells to grow, which is the mean time in days for the tumors of the treated group (T) to reach a predetermined value (1 g for example) and the tumors of the control group (C) to reach the same value, and Td represents the time in days needed for the volume of the tumors in the control group to double. […] A product is considered to be active if the log10 cell kill is greater than or equal to 0.7. A product is considered to be very active if the log10 cell kill is greater than 2.8.

[8] = tested on: C51; conditions: C51 (BALB/c), days 5, 7, 9, 13, 15, twice daily; for LCK: at optimal total dose
Method: as §4, §5

[9] = tested on: GOS; conditions: GOS (B6D2F1); for LCK: at optimal total dose
Method: as §4, §5

[10] = tested on: MA16/C; conditions: MA16/C (C3H/HeN); for Optimal Total Dose: days 5-9; for LCK: days 5-9, at optimal total dose
Method: as §4, §5

[11] = tested on: P03; conditions: P03 (B6D2F1), twice daily; for LCK: at optimal total dose
Method: as §4, §5

[12] = Tolerance of oral and i.v. irinotecan in tumor bearing mice (Example 1); type: in vivo; conditions: oral and intravenous
[13] = Doxorubicin i.v. 3.8 mg/kg/adm, days 6, 9
[14] = Doxorubicin i.v. 6.2 mg/kg/adm, days 6, 9
[15] = Doxorubicin i.v. 10.0 mg/kg/adm, days 6, 9
[16] = CPT-11 p.o. 38.8 mg/kg/adm, days 6-9 (twice/day)
[17] = CPT-11 p.o. 62.5 mg/kg/adm, days 6-9 (twice/day)
[18] = CPT-11 p.o. 100.8 mg/kg/adm, days 6-9 (twice/day)

In the case of COc1cccc2c1C(=O)c1c(O)c3c(c(O)c1C2=O)C[C@@](O)(C(=O)CO)C[C@@H]3O[C@H]1C[C@H](N)[C@H](O)[C@H](C)O1 [doxorubicin], the “% ILS” value ([1]; P388, agent i.v.) is reported as 122%, the “Comment (chemosensitivity of P388/CPT)” value ([2]; agent i.v.) is reported as “sensitive” and the “% ILS” value ([2]; agent i.v.) is reported as 180%. The tumor free survivors ([3]; doxorubicin i.v. single agent at HNTD 20.0 mg/kg, days 6, 9) was 4/5, the “HNTD Dose” value ([3]; doxorubicin i.v. single agent, days 6, 9) was 20.0 mg/kg and the Comments [4, 13] was “Active”. For the same compound, the Log10 cell kill [4, 13] was 1.0, the T-C [4, 13] was 7.5 days and the “Time for median tumor to reach 1000 mg” value [4, 13] was 23.9 days. For the same compound, the Comments [4, 14] was “Active”, the Log10 cell kill [4, 14] was 1.2 and the T-C [4, 14] was 9.5 days. For the same compound, the “Time for median tumor to reach 1000 mg” value [4, 14] was 25.9 days, the Comments [4, 15] was “HDT highly active” and the tumor free survivors [4, 15] was “*There are no values presented because 4 out of 5 animals tested were tumor free survivors”.
With COc1cc([C@@H]2c3cc4c(cc3[C@@H](O[C@@H]3O[C@@H]5CO[C@@H](C)O[C@H]5[C@H](O)[C@H]3O)[C@H]3COC(=O)[C@H]23)OCO4)cc(OC)c1O [etoposide] the “% ILS” value ([1]; P388, agent i.v.) was 127%, the “Comment (chemosensitivity of P388/CPT)” value ([2]; agent i.v.) was “sensitive” and the “% ILS” value ([2]; agent i.v.) was 121%. The “HNTD Dose” value [5] was 90.0 mg/kg and the LCK ([6]; mouse, in vivo) was 2.2.
In the case of CC[C@@]1(O)C(=O)OCc2c1cc1n(c2=O)Cc2cc3ccccc3nc2-1 [CPT, camptothecin], the “% ILS” value ([1]; P388, agent s.c.) is reported as 82%, the “Comment (chemosensitivity of P388/CPT)” value ([2]; agent s.c.) is reported as “resistant” and the “% ILS” value ([2]; agent s.c.) is reported as 0%.
For CCc1c2c(nc3ccc(OC(=O)N4CCC(N5CCCCC5)CC4)cc13)-c1cc3c(c(=O)n1C2)COC(=O)[C@]3(O)CC [CPT-11, irinotecan], the “Optimal Total Dose” value ([7]; i.v., twice daily) was 228 mg/kg, the LCK ([7]; i.v., twice daily) was 0.7 and the “Optimal Total Dose” value ([7]; oral, days 3-7 twice daily) was 558 mg/kg. The LCK ([7]; oral, days 3-7 twice daily) was 0.9, the “Optimal Total Dose” value ([8]; i.v.) was 615 mg/kg and the LCK ([8]; i.v.) was 3.0. The “Optimal Total Dose” value ([8]; oral) was 845 mg/kg, the LCK ([8]; oral) was 2.5 and the “Optimal Total Dose” value ([9]; i.v., days 3, 5, 7 twice daily) was 346.2 mg/kg. For the same compound, the LCK ([9]; i.v., days 3, 5, 7 twice daily) was 2.2, the “Optimal Total Dose” value ([9]; oral, days 3-7, twice daily) was 900 mg/kg and the LCK ([9]; oral, days 3-7, twice daily) was 2.1. For the same compound, the “Optimal Total Dose” value ([10]; i.v.) was 130.5 mg/kg, the LCK ([10]; i.v.) was 2.6 and the “Optimal Total Dose” value ([10]; oral) was 230.5 mg/kg. For the same compound, the LCK ([10]; oral) was 2.7, the “Optimal Total Dose” value ([11]; i.v.) was 346.2 mg/kg and the “tumor free survivor on day 120” value ([11]; i.v., 346.2 mg/kg total) was “†1/5 tumor free survivor on day 120”. The LCK ([11]; i.v.) was 3.2†, the “Optimal Total Dose” value ([11]; oral) was 900 mg/kg and the “tumor free survivor on day 120” value ([11]; oral, 900 mg/kg total) was “†1/5 tumor free survivor on day 120”. For the same compound, the LCK ([11]; oral) was 3.4†, the nadir ([12]; days post last administration) was 7 days and the recovery ([12]; days post nadir (i.e., 12 days post first administration)) was 5 days. The body weight loss ([12]; similar tolerance) was 8.5%, the “% ILS” value ([1]; P388, agent i.v.) was 91% and the “Comment (chemosensitivity of P388/CPT)” value ([2]; agent i.v.) was “resistant”. The “% ILS” value ([2]; agent i.v.) was 0%, the LCK ([3]; CPT-11 p.o. single agent at HNTD 806 mg/kg, days 6-9 twice daily) was 1.3 and the “HNTD Dose” value ([3]; CPT-11 p.o. single agent, days 6-9 twice daily) was 806 mg/kg. The Comments [4, 16] was “Inactive”, the Log10 cell kill [4, 16] was 0.5 and the T-C [4, 16] was 4.0 days. The “Time for median tumor to reach 1000 mg” value [4, 16] was 20.4 days, the Comments [4, 17] was “Active” and the Log10 cell kill [4, 17] was 1.2. For the same compound, the T-C [4, 17] was 9.3 days, the “Time for median tumor to reach 1000 mg” value [4, 17] was 25.7 days and the Comments [4, 18] was “HDT active”. The Log10 cell kill [4, 18] was 1.3, the T-C [4, 18] was 9.8 days and the “Time for median tumor to reach 1000 mg” value [4, 18] was 26.2 days. The LCK ([6]; CPT-11 p.o. single agent at HNTD 198.5 mg/kg, MA16/C sc, days 3-7) was 2.0 and the “HNTD Dose” value ([6]; CPT-11 p.o. single agent, MA16/C sc, days 3-7) was 198.5 mg/kg.
